From patent publication US12157730B2, “Heteroaryl derivative, method for producing same, and pharmaceutical composition comprising same as effective component” (VORONOI INC., priority 2019, dated 2024)

Molecular target: T1, Ba/F3 cell EGFR Exon20 ins NPH (Homo sapiens, UniProt P00533, INS773NPH)
T1 construct: expressed in transfected cells; host or cells: Ba/F3
Experiment: Ba/F3 cell proliferation suppression, EGFR Exon20 ins NPH
Type: cell-based
Conditions: GI50 class; Ba/F3 cell line with NPH inserted at Exon20 of EGFR; 72 hours
How it was run: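 Growth suppression determined as GI50 following 72 h exposure across 12 concentrations up to 50 um, with viability by luminescent ATP assay (CellTiter-Glo).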

SMILES	Ba/F3 (NPH) Activity
C=CC(=O)Nc1cc(Nc2cc(N3OCC[C@@H]3c3ccccc3)ncn2)c(OC)cc1N1C2CC1CN(C)C2 [Example 35, N-(4-methoxy-2-(3-methyl-3,6-diazabicyclo[3.1.1]heptane-6-yl)-5-((6-((R)-3-phenylisoxazolidine-2-yl)pyrimidine-4-yl)amino)phenyl) acrylamide]	B (50 nM ≤ GI50 < 500 nM)
C=CC(=O)Nc1cc(Nc2cc(N3OCC[C@@H]3c3ccc(F)c(Cl)c3F)ncn2)c(OC)cc1N1CCN(C)CC1 [compound 604, N-(5-((6-((R)-3-(3-chloro-2,4-difluorophenyl)isoxazolidine-2-yl)pyrimidine-4-yl)amino)-4-methoxy-2-(4-methylpiperazine-1-yl)phenyl)acrylamide]	A (GI50 < 50 nM)
C=CC(=O)Nc1cc(Nc2cc(N3OCC[C@@H]3c3ccc(Cl)c(Cl)c3F)ncn2)c(OC)cc1N1CC[C@@H](N2CCOCC2)C1 [Example 294, N-(5-((6-((R)-3-(3,4-dichloro-2-fluorophenyl)isoxazolidine-2-yl)pyrimidine-4-yl)amino)-4-methoxy-2-((R)-3-morpholinopyrolidine-1-yl)phenyl)acrylamide]	B (50 nM ≤ GI50 < 500 nM)
C=CC(=O)Nc1cc(Nc2cc(N3OCC[C@@H]3c3ccccc3)ncn2)c(OC)cc1N1CCC(N2CCN(C(C)C)CC2)CC1 [Example 283, N-(2-(4-(4-isopropylpiperazine-1-yl)piperidine-1-yl)-4-methoxy-5-((6-((R)-3-phenylisoxazolidine-2-yl)pyrimidine-4-yl)amino)phenyl) acrylamide]	A (GI50 < 50 nM)
C=CC(=O)Nc1cc(Nc2cc(N3OCC[C@@H]3c3cccc(Cl)c3Cl)ncn2)c(OC)cc1N1CCN(C2CC2)[C@H](C)C1 [compound 564, N-(2-((R)-4-cyclopropyl-3-methylpiperazine-1-yl)-5-((6-((R)-3-(2,3-dichlorophenyl)isoxazolidine-2-yl)pyrimidine-4-yl)amino)-4-methoxyphenyl) acrylamide]	A (GI50 < 50 nM)
C=CC(=O)Nc1cc(Nc2cc(N3OCC[C@@H]3c3cccc(Cl)c3C)ncn2)c(OC)cc1N1CCC(N2CCN(C3CC3)[C@H](C)C2)CC1 [Example 152, N-(5-((6-((R)-3-(3-chloro-2-methylphenyl)isoxazolidine-2-yl)pyrimidine-4-yl)amino)-2-(4-((R)-4-cyclopropyl-3-methylpiperazine-1-yl)piperidine-1-yl)-4-methoxyphenyl) acrylamide]	A (GI50 < 50 nM)

Other lines, results leading:

Ba/F3 (NPH) Activity	SMILES
A (GI50 < 50 nM)	C=CC(=O)Nc1cc(Nc2cc(N3OCC[C@@H]3c3cc(F)ccc3F)ncn2)c(OC)cc1N1CCC(N2CCN(CC)CC2)CC1 [compound 767, N-(5-((6-((R)-3-(2,5-difluorophenyl)isoxazolidine-2-yl)pyrimidine-4-yl)amino)-2-(4-(4-ethylpiperazine-1-yl)piperidine-1-yl)-4-methoxyphenyl) acrylamide]
A (GI50 < 50 nM)	C=CC(=O)Nc1cc(Nc2cc(N3OCC[C@@H]3c3cccc(F)c3)ncn2)c(OC)cc1N1CCC(N2C[C@@H]3C[C@H]2CN3CC)CC1 [compound 835, N-(2-(4-((1S,4S)-5-ethyl-2,5-diazabicyclo[2.2.1]heptane-2-yl)piperidine-1-yl)-5-((6-((R)-3-(3-fluorophenyl)isoxazolidine-2-yl)pyrimidine-4-yl)amino)-4-methoxyphenyl) acrylamide]
A (GI50 < 50 nM)	C=CC(=O)Nc1cc(Nc2cc(N3OCC[C@@H]3c3ccc(Cl)c(Cl)c3)ncn2)c(OC)cc1N1CCN(CC)CC1 [compound 672, N-(5-((6-((R)-3-(3,4-dichlorophenyl)isoxazolidine-2-yl)pyrimidine-4-yl)amino)-2-(4-ethylpiperazine-1-yl)-4-methoxyphenyl) acrylamide]
